Patent US11982676B2, “Near-infrared fluorescent nanoprobe” (VALORISATION-RECHERCHE, LIMITED PARTNERSHIP, priority 2021, dated 2024)

What was measured:
Daphnia pulex = assay: Incubation of Daphnia pulex with samples in FLAMES medium, evaluation of potential toxicity; format: in vivo
Excerpt: The impressive robustness and fading-free properties of the Dyes@BNNT are appealing for bio-imaging applications. FIG. 4 presents an example of the use of nanohybrids to make optical nanoprobes for imaging living Daphnia pulex microorganisms in water—see bright-field image in FIG. 4a #1. Daphnia (also called water fleas) are common planktonic crustaceans, which find use as chemical sensors in ecotoxicology studies, thanks to their high sensitivity to water quality. To acquire the bio-images (FIG. 4a #2-5), we first solubilized the Dyes@BNNTs in a water-based living medium called FLAMES, using a poly (ethylene) glycol derivative (mPEG-DSPE) (Supplementary Section 2.9). […] Living daphniids were imaged under a fluorescence microscope equipped with UBG filter and a 10× objective. […] This natural blue-green signal originates from the auto-fluorescence of the tissues in FLAMES through the UBG filter, which disappears after death or after few minutes only of photobleaching. […]
Before any experiment, many adult individuals of Daphnia pulex (clones DISP 1312) were kept at 22° C. in FLAMES with algae for 4 days, allowing a new reproducing cycle. Then, the specimens were transferred to a FLAMES medium algae-free and maintained this condition for at least 1 day to clean the digestive system and limit the fluorescence from the algae themselves during the images/time lapse acquisition—FIG. 8. […]

[1] = Chemical stability on Si/SiO2: oxygen plasma, thermal annealing, piranha; format: physicochemical; conditions: oxygen plasma of 100 W for 10 minutes
Procedure: The chemical stability of the nanohybrids is tested using individualized 6T@BNNT bundles on Si/SiO2 exposed to an oxygen plasma of 100 W for 10 minutes. […] The enhanced stability of the encapsulated dyes has also been observed upon thermal annealing up to 350° C. in air and using piranha solutions (not shown). […] The chemical and physical stability experiments have been repeated on a number of Dyes@BNNT nanohybrids of different lengths deposited on substrates or dispersed in a solution (See e.g. Supplementary Figs. 10 and 11). All of the results lead us to the same conclusion, which underlines the tremendous gain in stability inferred by the confinement of the 1D cavity of BNNTs.

HuH6 cells = assay: Two-photon photobleaching test and excitation profile in fixed HuH6 cells; design: species or system human; conditions: λex=860 nm, 30 mins, 400 Hz, laser output power 2.55 W
Procedure: To further assess a possible toxicity of the Dyes@BNNT, we performed an additional set of experiments at the scale of a cell. We incubated 10 μg·mL^−1 of a PEG-6T@BNNT solution for 24 hours with human hepatoblastoma HuH6 cells, which is one of the model cell lines used for toxicology studies. […] FIGS. 5a and 5c show fluorescence spectra consistent with DiA (green) and PEG-6T@BNNT (red) separated in the regions 2 and 1, respectively. […] The fluorescence of both the DiA and PEG-6T@BNNT, as a function of the excitation wavelength between 740 nm and 1020 nm, is shown in FIG. 5d. The resonance maximum of DiA is measured at 880 nm, which is distinct from the resonance of the PEG-6T@BNNT located at ˜740 nm, a position similar to that of functionalized polythiophene. […] To directly compare exposed and non-exposed cells, FIG. 5b presents a two-photon hyperspectral fluorescence image taken in a field of view slightly larger than the photobleaching test area. […]
3.2 Characterization by Raman and Photoluminescence. […] The equipment of the different setups is summarized in Table S2 and are described as follows: • The Luminescence images and photobleaching experiments, as presented in FIG. 3, main text, were performed at λex=532 nm using the Raman/PL mapping system RIMA™ (Photon etc.). […]

Compound	state of daphniids after first incubation test (Daphnia pulex; free 6T in FLAMES, incubation time of only few minutes)	time after which individuals died (Daphnia pulex; group B, incubated directly with 6T at 100 ug/mL)	change in PL after oxygen plasma [1]	fluorescence after two-photon photobleaching test (HuH6 cells)
c1csc(-c2ccc(-c3ccc(-c4ccc(-c5ccc(-c6cccs6)s5)s4)s3)s2)c1 [6T, α-sexithiophene]	found dead	20 h	completely vanished	
CCCCC/C=C\C/C=C\CCCCCCCCN(CCCCCCCC/C=C\C/C=C\CCCCC)c1ccc(C=Cc2cc[n+](C)cc2)cc1.O=S(=O)([O-])c1ccc(Cl)cc1 [DiA]				significantly photo-bleached
